According to patent publication US10017741B2, “Compositions and methods for obtaining enriched mesenchymal stem cell cultures” (StemCell Technologies Inc., priority 2013, dated 2018):

Key:
[1] = tested on: CB-derived cultures (CD45+/CD11b+ macrophages, Sca1+ monocytes); assay: Flow cytometry of CB-derived expansion cultures; format: cell-based, mouse; conditions: CB-derived cultures, 1 μM up to P2
Procedure: (§1) c. Expansion of Human BM and Mouse BM and CB-Derived Cells Assay • 1. […] Cultures were allowed to grow for 10-14 days until adherent cells achieved 70 to 80% confluence. Mouse cultures were maintained under normal (5% CO2) or hypoxic conditions (5% CO2/5% O2) at 37 C in a cell culture incubator. Human cultures were maintained under 5% CO2 at 37 C in a humidified cell culture incubator. • 3. Adherent cells were passaged by releasing cultures from flask. Cultures were washed with 5 mL PBS and then 5 mL of 0.25% trypsin solution ([…] catalogue #07901) was added and the flasks incubated for 10 min at 37 C. To each flask, 5 mL complete medium was added to stop trypsin activity. • 4. Released cells were collected into a tube and centrifuged at 300×g for 5 minutes. • 5. Cells were resuspended in 2 mL of medium and counted using a hemocytometer. • 6. […] P1 cultures were incubated until they reached 70 to 80% confluence. • 8. Passaged cultures can be used at any time from P0 to P10 as needed for different applications.
(§2) d. Flow Cytometry Analysis • 1. Cultures of BM and CB-derived cells were trypsinized for 10 minutes and an equal volume of complete medium was added to cultures to stop trypsin activity • 2. Cell suspension was filtered through a 40 μm strainer, and cells counted using a hemocytometer • 3. Suspension was spun down at 300×g for 5 minutes. • 4. Supernatant was removed and cell pellet resuspended in FACS buffer (PBS with 2% FBS and 1 mM EDTA) • 5. A total of 1×10^5 cells in 300 μL FACS buffer was used for each flow cytometry analysis tube, including unstained, viability, compensation, and isotype controls. • 6. Cell suspensions were stained with fluorophore-labeled antibodies against CD45, CD11b, and Sca1, CD29, and viability dye. • 7. Cell suspensions were analyzed on a flow cytometer using compensation and isotype control to determine laser voltage and gating. • 8. Samples were gated on viable CD45^+ cells and 10,000 events per sample were collected. Alternatively, cells were gated on viable CD45^− cells and out of this gate the proportion of CD29+/Sca1^+ cells obtained.

[2] = tested on: BM-derived cultures (CD45+/CD11b+ macrophages, Sca1+ monocytes); assay: Flow cytometry of BM-derived expansion cultures; format: cell-based, mouse; conditions: BM-derived cultures, 1 μM up to P2
Procedure: as §1, §2

SMILES: COc1cc(Oc2ccnc3cc(OC)c(OC)cc23)ccc1NC(=O)NC(C)c1nccs1 (centres unmarked) [KI20227, N-{4-[(6,7-dimethoxy-4-quinolyl)oxy]-2-methoxyphenyl}-N0-[1-(1,3-thiazole-2-yl)ethyl]urea]
- CD45+/CD11b+ mature macrophages, of viable cells [1]: < 2%
- CD45+/CD11b+ mature macrophages, of viable cells [2]: < 2%
